Test results from patent US9487557B2, “Peptides for management of lactation” (MILEUTIS LTD., priority 2012, dated 2016).
Square brackets hold non-standard residues; d marks the D form. Ends that are not written are not given here. pS = N[C@@H](COP(=O)(O)O)C(=O)O

What was measured:
Assay type in all cases: in vivo
[1] = system: mammary gland of lactating dairy cows; experiment: Field study of involution induction: change in somatic cell counts in milk samples after a single intramammary infusion at dry-off; conditions: change vs Day 0, calculated from log transformation of raw data, single intramammary infusion, peptides 4 mg in 10 ml, casein hydrolyzate 20 ml
Experimental: (§1) A filed study was performed to assess the potential of a single intramammary dose of the synthetic peptides of the invention administered at dry (i.e. at the day in which milking is ceased), to induce rapid involution.
(§2) Total of 107 dairy cows were enrolled to the study, of which 45 received treatment and 62 served as a control. All cows were dairy cows at their first or further lactation that stand the inclusion/exclusion criteria. The study was a controlled blinded case-control study.
(§3) Case subjects received one dose by intramammary infusion of a particular peptide. Controls were lactating cows that received the following products by intramammary administration:
(§4) Five groups of 9 cows (total of 36 udder quarters per group) were scheduled as case groups. Each group was treated with one out of the five (5) phosphopeptides described in Example 1 hereinabove (P241210-01-01; 03; 05; 07 and 09). The peptides were administered once via intramammary infusion of 10 ml containing 4 mg peptide.
(§5) Set one: Five groups of 9 cows (total of 36 udder quarters per group) were scheduled as a first control set. Each group was treated with one out of the five (5) dephosphorylated peptides described in Example 1 hereinabove (P241210-01-02; 04; 06; 08 and 10). The peptides were administered once via intramammary infusion of 10 ml containing 4 mg peptide.
(§6) (i) Eleven cows (total of 44 udder quarters) treated with casein hydrolyzate (20 ml) administered once via intramammary infusion of 20 ml (around 1.8 mg/ml casein phosphopeptide (CPP), total=36 mg CPP for 20 ml)
(§7) All treatments (peptides, casein hydrolyzate and saline) were administered at the time point scheduled for cessation of milking (dry off). The day of administration was set as Day 0.
(§8) Sets of aseptic milk samples were collected in two separate vials once a day in the milking facility after the morning milking, on Day 0 and in post-treatment days 1, 2 and 3. The sampling time points were set to up to three days after treatment administration to ensure sufficient milk secretion for the measurements of all involution parameters. The volume of the samples was between 30 to 50 ml. The pH of the milk sample was measured in situ using a Cyberscan pH11 meter (Eutech Instruments, Singapore). The apparatus was calibrated each day by immersing the receptor in standard buffers of pH 7.0 and pH 4.01. Measurements were taken twice for each sample obtained from a mammary gland, with an interval of 30 seconds between measurements. pH measurement was repeated on-site by using the same sample vial. Before double-pH measurement, the milk sample vials were gently shaken three (3) times. After the pH measurement, the milk samples vials were kept in cool storage with a preservative product (Broad Spectrum Microtabs II—Bronopol and Metamycin—D&F Control System Inc., Two Technology Way, Norwood Mass. 02062 USA).
Somatic cell count was also determined in milk samples by Fossomatic 360 (Foss Electric, Hillerod, Denmark), and based on guidelines from the USA National Mastitis Council. Laboratory Handbook on Bovine Mastitis. 1999. Ed. National Mastitis Council, Verona, Wis. 53593 USA.
(§9) Endpoint Measures: pH, lactose and somatic cell counts (SCC) values from milk secretions at day 0 and during three (3) days post-treatment were taken. Results are described as the difference between the measures at each of the 3 days post treatment and the measured level at Day 0.
Additional parameter that may be used to establish the progression of the involution process is the presence of somatic cells within the milk. The increase in cell count within the milk is the result of high degree of apoptotic epithelial cell death associated with involution. […] The results presented in the table were calculated from log transformation of the raw data that were highly variable.

[2] = system: mammary gland of lactating dairy cows; experiment: Field study of involution induction: change in lactose content of milk samples after a single intramammary infusion at dry-off; conditions: difference in lactose concentration vs Day 0, single intramammary infusion, peptides 4 mg in 10 ml, casein hydrolyzate 20 ml
Experimental: as §1, §2, §3, §4, §5, §6, §7, §8
Lactose values in the milk samples were determined at the Central Laboratory of Milk Quality, Caesaria Industrial Park, Israel, according to ISO 2266211DF 198:2007.
Data from six quarters were excluded from the analysis of lactose changes. Data from one of those quarters were omitted due to a missing initial value. For the other five quarters, lactose concentrations taken during the three follow-up days could not be analyzed due to a rapid mammary involution process, resulting in non-sufficient milk sample for lactose analysis.
as §9
One of the most significant outcomes of involution in terms of milk composition is a reduction in lactose content. Thus, lactose concentration was also measured in the milk samples taken before and after peptide or CNH administration as described for the pH measurements hereinabove. […]

[3] = system: mammary gland of lactating dairy cows; experiment: Field study of involution induction: change of pH in milk samples after a single intramammary infusion at dry-off; conditions: difference in pH vs Day 0, single intramammary infusion, peptides 4 mg in 10 ml, casein hydrolyzate 20 ml
Experimental: as §1, §2, §3, §4, §5, §6, §7, §8, §9
Table 2 below summarizes the effect of the peptides examined and of casein hydrolyzate (CNH) on the pH of milk samples taken 1, 2 and 3 days after the one-dose treatment with each peptide or CNH. The results are presented as the difference in pH value between each of the days post treatment and Day 0 (before treatment).

Substance: Lys-Ser(P)-Ser(P)-Ser(P)-Glu-Glu-NH2 (K[pS][pS][pS]EE-NH2; N-terminus assumed; SMILES NCCCC[C@H](N)C(=O)N[C@@H](COP(=O)(O)O)C(=O)N[C@@H](COP(=O)(O)O)C(=O)N[C@@H](COP(=O)(O)O)C(=O)N[C@@H](CCC(=O)O)C(=O)N[C@@H](CCC(=O)O)C(N)=O) [E(p), casein-derived peptide, positive control]
- Changes in Somatic Cell Counts in milk samples, Day 1, Mean ([1]; Day 1 post treatment): 0.060
- Changes in Somatic Cell Counts in milk samples, Day 2, Mean ([1]; Day 2 post treatment): 1.175
- Changes in Somatic Cell Counts in milk samples, Day 3, Mean ([1]; Day 3 post treatment): 1.847
- Changes in Lactose content in milk samples, Day 1, Mean ([2]; Day 1 post treatment): −0.354
- Changes in Lactose content in milk samples, Day 2, Mean ([2]; Day 2 post treatment): −1.530
- Changes in Lactose content in milk samples, Day 3, Mean ([2]; Day 3 post treatment): −2.042
- Changes of pH in milk samples, Day 1, Mean ([3]; Day 1 post treatment): 0.045
- Changes of pH in milk samples, Day 2, Mean ([3]; Day 2 post treatment): 0.061
- Changes of pH in milk samples, Day 3, Mean ([3]; Day 3 post treatment): 0.128
